From US5912405A, “Enhancers such as acetosyringone” (Novo Nordisk A/S, priority 1994, dated 1999)

What was measured:
Type in all cases: biochemical
[1] = target: T1, Coprinus cinereus peroxidase (CiP) (Coprinopsis cinerea, UniProt P28314); experiment: Initial bleaching of Chicago Sky Blue 6B (CSB) with Coprinus cinereus peroxidase and enhancers; settings: 5 μM enhancer, 20 μM H2O2, 30° C.
T1 construct: made in house
T1 sequence (P28314 21-363): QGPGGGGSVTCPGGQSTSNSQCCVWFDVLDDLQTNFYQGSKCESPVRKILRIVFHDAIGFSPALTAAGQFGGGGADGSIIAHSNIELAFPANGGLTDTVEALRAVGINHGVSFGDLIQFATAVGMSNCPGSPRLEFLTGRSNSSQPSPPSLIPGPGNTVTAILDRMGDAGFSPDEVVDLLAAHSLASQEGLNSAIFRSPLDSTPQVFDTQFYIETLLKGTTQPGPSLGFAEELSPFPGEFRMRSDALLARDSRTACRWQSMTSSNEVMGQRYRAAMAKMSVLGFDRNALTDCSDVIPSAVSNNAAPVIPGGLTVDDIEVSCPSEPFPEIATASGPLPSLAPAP
Procedure: (§1) The bleaching rate of Direct Blue 1 (DB1) by purified CiP was determined using the following conditions: […]
(§2) Reagents were mixed in a thermostated cuvette at 30° C. and the bleaching was started by addition of hydrogen peroxide. The bleaching was detected spectrophotometrically at 610 nm, which is the wavelength of the absorption peak of DB1. Bleaching was followed for 1 minute, and the initial reduction in absorbance, --ΔmAbs/minute, was determined.
Bleaching tests were performed in exactly the same way as described in Example 2 except that instead of using DB1 Chigaco Sky Blue (CSB) (obtainable from Aldrich) was used, and the following enhancers were tested: […]

[2] = target: T1, Coprinus cinereus peroxidase (CiP); experiment: Initial bleaching of Direct Blue 1 with Coprinus cinereus peroxidase and enhancers; settings: 5 μM enhancer, 20 μM H2O2, 30° C.
Procedure: A Coprinus cinereus peroxidase (CiP), obtained as described in WO 9412621 was used.
Dilutions of CiP were made in a solution of 0.15 gram/l of Triton X-405.
as §1, §2

[3] = tested on: laccase obtained from Coprinus comatus; experiment: Bleaching of Direct Blue 1 using Coprinus comatus laccase and methylsyringate; settings: 10 μM methylsyringate, 30° C.
Procedure: (§3) Bleaching of the dye Direct Blue 1 at various pH values was conducted using a laccase obtained from Coprinus comatus, Coprinus friesii, Coprinus plicatilis, Panaeolus papilionaceus or Psathyrella condolleana and methylsyringate.
(§4) After fermentation the culture broths were centrifugated and the supernatants were used in the tests described below.
(§5) The bleaching rate of DB1 was determined using the following conditions: […]
(§6) Reagents were mixed in a 1 ml thermostated cuvette at 30° C. and the bleaching was started by addition of the laccase.
(§7) The bleaching was followed spectrophotometrically at 610 nm, which is the wavelength of the absorption peak of DB1, with readings every 5 sec. for a period of 5 minutes. The initial bleaching rate was determined from the first linear part of the absorbance curve.

[4] = tested on: laccase obtained from Coprinus friesii; experiment: Bleaching of Direct Blue 1 using Coprinus friesii laccase and methylsyringate; settings: 10 μM methylsyringate, 30° C.
Procedure: as §3, §4, §5, §6, §7

[5] = tested on: laccase obtained from Panaeolus papilionaceus; experiment: Bleaching of Direct Blue 1 using Panaeolus papilionaceus laccase and methylsyringate; settings: 10 μM methylsyringate, 30° C.
Procedure: as §3, §4, §5, §6, §7

[6] = tested on: laccase obtained from Psathyrella condolleana; experiment: Bleaching of Direct Blue 1 using Psathyrella condolleana laccase and methylsyringate; settings: 10 μM methylsyringate, 30° C.
Procedure: as §3, §4, §5, §6, §7

[7] = tested on: laccase obtained from Coprinus plicatilis; experiment: Bleaching of Direct Blue 1 using Coprinus plicatilis laccase and methylsyringate; settings: 10 μM methylsyringate, 30° C.
Procedure: as §3, §4, §5, §6, §7

[8] = target: T2, Coprinus cinereus laccase (Coprinopsis cinerea, UniProt Q9Y780); experiment: Bleaching of Direct Blue 1 using Coprinus cinereus laccase with/without enhancing agents at pH 5.5-8.5; settings: C. cinereus laccase 1 mg/l, 10 μM enhancing agent, 30° C.
T2 sequence (Q9Y780 19-539): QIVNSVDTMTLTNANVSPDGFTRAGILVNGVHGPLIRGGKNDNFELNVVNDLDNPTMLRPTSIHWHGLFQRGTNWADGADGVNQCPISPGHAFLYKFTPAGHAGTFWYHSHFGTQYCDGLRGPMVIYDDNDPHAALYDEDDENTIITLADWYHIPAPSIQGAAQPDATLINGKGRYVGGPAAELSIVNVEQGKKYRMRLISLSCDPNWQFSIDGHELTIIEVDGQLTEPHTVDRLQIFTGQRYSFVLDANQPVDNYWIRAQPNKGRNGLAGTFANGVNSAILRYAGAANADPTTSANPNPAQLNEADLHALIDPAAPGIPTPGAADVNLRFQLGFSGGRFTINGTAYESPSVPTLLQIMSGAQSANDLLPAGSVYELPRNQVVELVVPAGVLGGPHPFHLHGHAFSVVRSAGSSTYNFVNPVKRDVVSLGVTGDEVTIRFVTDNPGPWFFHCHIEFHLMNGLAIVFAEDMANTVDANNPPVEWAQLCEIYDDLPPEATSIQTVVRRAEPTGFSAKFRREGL
Procedure: Bleaching of the dye Direct Blue 1 at various pH values was conducted using Coprinus cinereus laccase and one of the following enhancing agents:
The laccase was obtained in the following way: Coprinus cinereus (IFO 30116--freely available to the public from Institute of Fermentation, Osaka (IFO) under the indicated deposit number) was inoculated from a PDA agar slant (PDA: 39 g/l potato dextrose agar) into a 100 ml shake flask containing medium A (Medium A is described in Example 3). The culture was cultivated for 6 days at 26° C. and 100 rpm. A 10-liter fermentor containing medium A was inoculated with the 100 ml culture broth. The fermentation ran for 6 days at 26° C. and 100 rpm. The culture broth was filtrated and concentrated by ultrafiltration. Further purification was carried out using hydrophobic interaction chromatography followed by anionic exchange chromatography. This process resultated in a preparation with a laccase activity of 3.6 LACU/ml. The estimated purity was >80% on a protein basis.
The bleaching rate of DB1 was determined using the owing conditions: […]
as §6
The bleaching was followed spectrophotometrically at 610 nm, which is the wavelength of the absorption peak of DB1 with readings every 5 sec. for a period of 5 minutes. The initial bleaching rate was determined from the first linear part of the absorbance curve.

Trametes villosa laccase = target: T3, Trametes villosa laccase (Trametes villosa, UniProt Q99044); experiment: Bleaching of Direct Blue 1 with Trametes villosa laccase with and without enhancing agents; settings: 10 μM enhancer, 30° C.
T3 construct: made in house; host or cells: Trametes villosa CBS 678.70 (native producer), purified from culture broth
T3 sequence (Q99044 22-520): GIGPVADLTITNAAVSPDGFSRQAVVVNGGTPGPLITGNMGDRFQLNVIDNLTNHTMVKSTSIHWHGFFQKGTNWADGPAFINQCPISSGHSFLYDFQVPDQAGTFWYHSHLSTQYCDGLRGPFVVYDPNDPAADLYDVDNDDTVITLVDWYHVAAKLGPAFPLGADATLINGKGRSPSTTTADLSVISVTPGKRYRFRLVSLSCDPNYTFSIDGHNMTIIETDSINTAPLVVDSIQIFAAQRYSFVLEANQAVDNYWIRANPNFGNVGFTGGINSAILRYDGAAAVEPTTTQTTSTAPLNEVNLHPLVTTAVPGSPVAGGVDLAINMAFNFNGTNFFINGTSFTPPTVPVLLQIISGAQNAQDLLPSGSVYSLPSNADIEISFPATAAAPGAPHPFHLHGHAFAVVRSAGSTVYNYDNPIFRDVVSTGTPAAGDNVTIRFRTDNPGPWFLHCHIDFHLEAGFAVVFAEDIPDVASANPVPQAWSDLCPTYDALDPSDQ
Procedure: Laccase obtained from Trametes villosa: 800 ml culture broth of Trametes villosa, CBS 678.70, was filtered with filter aid to give a clear filtrate, which was concentrated and washed by ultrafiltration on a membrane with a cut-off of 6-8 kDa. One ml samples of concentrated preparation was applied onto a Q-Sepharose HP column (Pharmacia, Sweden) equilibrated with 0.1 M fosfate pH 7, and the laccase was eluted with a flat NaCl gradient around 0.25 M. Fractions with laccase activity from 10 runs were pooled and concentrated by ultrafiltration to an activity of 500 LACU/ml.
The following conditions were used: […]
Reagents were mixed in a 1 cm thermostated cuvette at 30° C. and the bleaching was started by addition of enzyme.
The bleaching was detected spectrophotometrically at 610 nm, which is the absorption peak of DB1. After 5 sec. bleaching was followed for 4 minutes.
Bleaching of Direct Blue 1 with Trametes villosa laccase, obtained as described above, at pH 5.5 (1.6 mg/l) and pH 7.0 (16 mg/l): […]

## CCCCCCOC(=O)c1cc(OC)c(O)c(OC)c1 [hexylsyringate]
[1]; pH 8.5, 0.08 mg/l CiP
  Initial Bleaching of CSB with CiP: 276 -ΔmAbs/minute
[1]; pH 10.5, 0.16 mg/l CiP
  Initial Bleaching of CSB with CiP: 36 -ΔmAbs/minute

## CCOC(=O)c1cc(OC)c(O)c(OC)c1 [ethylsyringate]
[1]; pH 8.5, 0.08 mg/l CiP
  Initial Bleaching of CSB with CiP: 240 -ΔmAbs/minute
[1]; pH 10.5, 0.16 mg/l CiP
  Initial Bleaching of CSB with CiP: 52 -ΔmAbs/minute

## CCOC(=O)C=Cc1cc(OC)c(O)c(OC)c1 [ethyl 3-(4-hydroxy-3,5-dimethoxyphenyl)acrylate]
[1]; pH 8.5, 0.08 mg/l CiP
  Initial Bleaching of CSB with CiP: 48 -ΔmAbs/minute
[1]; pH 10.5, 0.16 mg/l CiP
  Initial Bleaching of CSB with CiP: 48 -ΔmAbs/minute

## COC(=O)c1cc(OC)c(O)c(OC)c1 [methylsyringate]
[2]; pH 8.5, 0.08 mg/l CiP
  Initial Bleaching of Direct Blue 1 with CiP: 245 -ΔmAbs/minute
[2]; pH 10.5, 0.16 mg/l CiP
  Initial Bleaching of Direct Blue 1 with CiP: 8 -ΔmAbs/minute
[1]; pH 8.5, 0.08 mg/l CiP
  Initial Bleaching of CSB with CiP: 211 -ΔmAbs/minute
[1]; pH 10.5, 0.16 mg/l CiP
  Initial Bleaching of CSB with CiP: 42 -ΔmAbs/minute
[3]; C. comatus laccase 4 LACU/l, pH 5.5
  Initial bleaching rate of DB1: 33 -ΔmAbs/minute
[3]; C. comatus laccase 4 LACU/l, pH 7.0
  Initial bleaching rate of DB1: 23 -ΔmAbs/minute
[3]; C. comatus laccase 20 LACU/l, pH 8.5
  Initial bleaching rate of DB1: 2 -ΔmAbs/minute
[4]; C. friesii laccase 4 LACU/l, pH 5.5
  Initial bleaching rate of DB1: 40 -ΔmAbs/minute
[4]; C. friesii laccase 4 LACU/l, pH 7.0
  Initial bleaching rate of DB1: 55 -ΔmAbs/minute
[4]; C. friesii laccase 20 LACU/l, pH 8.5
  Initial bleaching rate of DB1: 61 -ΔmAbs/minute
[5]; Pan. papilionaceus laccase 4 LACU/l, pH 5.5
  Initial bleaching rate of DB1: 16 -ΔmAbs/minute
[5]; Pan. papilionaceus laccase 4 LACU/l, pH 7.0
  Initial bleaching rate of DB1: 19 -ΔmAbs/minute
[5]; Pan. papilionaceus laccase 20 LACU/l, pH 8.5
  Initial bleaching rate of DB1: 18 -ΔmAbs/minute
[6]; Ps. condolleana laccase 4 LACU/l, pH 5.5
  Initial bleaching rate of DB1: 45 -ΔmAbs/minute
[6]; Ps. condolleana laccase 4 LACU/l, pH 7.0
  Initial bleaching rate of DB1: 54 -ΔmAbs/minute
[6]; Ps. condolleana laccase 20 LACU/l, pH 8.5
  Initial bleaching rate of DB1: 43 -ΔmAbs/minute
[7]; C. plicalitis laccase 4 LACU/l, pH 5.5
  Initial bleaching rate of DB1: 42 -ΔmAbs/minute
[7]; C. plicalitis laccase 4 LACU/l, pH 7.0
  Initial bleaching rate of DB1: 39 -ΔmAbs/minute
[7]; C. plicalitis laccase 20 LACU/l, pH 8.5
  Initial bleaching rate of DB1: 14 -ΔmAbs/minute
[8]; pH 5.5
  Initial bleaching rate of DB1: 20 -ΔmAbs/minute
[8]; pH 7.0
  Initial bleaching rate of DB1: 94 -ΔmAbs/minute
[8]; pH 8.5
  Initial bleaching rate of DB1: 57 -ΔmAbs/minute

## COc1cc(C=O)cc(OC)c1O [syringaldehyde]
[2]; pH 8.5, 0.08 mg/l CiP
  Initial Bleaching of Direct Blue 1 with CiP: 151 -ΔmAbs/minute
[2]; pH 10.5, 0.16 mg/l CiP
  Initial Bleaching of Direct Blue 1 with CiP: 4 -ΔmAbs/minute
[8]; pH 5.5
  Initial bleaching rate of DB1: 29 -ΔmAbs/minute
[8]; pH 7.0
  Initial bleaching rate of DB1: 79 -ΔmAbs/minute
[8]; pH 8.5
  Initial bleaching rate of DB1: 28 -ΔmAbs/minute
Trametes villosa laccase; pH 5.5, Trametes villosa laccase 1.6 mg/l
  DB1 bleaching in 4 minutes: 438 -ΔmAbs/4 min
Trametes villosa laccase; pH 7.0, Trametes villosa laccase 16 mg/l
  DB1 bleaching in 4 minutes: 112 -ΔmAbs/4 min

## CCCCOC(=O)c1cc(OC)c(O)c(OC)c1 [butylsyringate]
[1]; pH 8.5, 0.08 mg/l CiP
  Initial Bleaching of CSB with CiP: 228 -ΔmAbs/minute
[1]; pH 10.5, 0.16 mg/l CiP
  Initial Bleaching of CSB with CiP: 48 -ΔmAbs/minute

## CCCCCCCCOC(=O)c1cc(OC)c(O)c(OC)c1 [octylsyringate]
[1]; pH 8.5, 0.08 mg/l CiP
  Initial Bleaching of CSB with CiP: 192 -ΔmAbs/minute
[1]; pH 10.5, 0.16 mg/l CiP
  Initial Bleaching of CSB with CiP: 15 -ΔmAbs/minute

## CCCOC(=O)c1cc(OC)c(O)c(OC)c1 [propylsyringate]
[1]; pH 8.5, 0.08 mg/l CiP
  Initial Bleaching of CSB with CiP: 228 -ΔmAbs/minute
[1]; pH 10.5, 0.16 mg/l CiP
  Initial Bleaching of CSB with CiP: 60 -ΔmAbs/minute
